Experimental data reported in patent US7429679B2, “Sulphonic acid salt of sibutramine” (CJ Corporation, priority 2005, dated 2008).
Values after ≈ are worked out from the molar mass of the structure shown. “Also recorded” adds a separate entry of the source. Counter-ions that a name gives are not always drawn.

What was measured:
[1] = Evaluation of solubility in distilled water and aqueous solutions having various pH values; type: physicochemical; conditions: for solubility compared to sibutramine hydrochloride monohydrate (in words): distilled water (DW) and buffer solutions at various pH values
[2] = Evaluation of light stability: exposure to fluorescence at 25° C., ICH light stability test chamber, content by HPLC; type: physicochemical; parameters: content (HPLC) in light stability test: reference not given here
Method: A light stability test was performed as follows. The sulphonic acid salts of sibutramine, prepared in Examples 1 to 5, and sibutramine hydrochloride monohydrate were exposed to fluorescence at 25° C. using a light stability test chamber suitable for the ICH guideline, for storage periods of 1, 2 and 4 weeks.

[3] = Evaluation of stability: stringent 60° C. heat treatment, content by HPLC; type: physicochemical; parameters: content (HPLC) upon 60° C. heat treatment: reference not given here
Method: The sulphonic acid salts of sibutramine, prepared in Examples 1 to 5, and sibutramine hydrochloride monohydrate were exposed to a stringent 60° C. heat treatment.
HPLC was performed under the following conditions.
Wavelength of UV detection: 225 nm
Column: octadecyl silica gel, C18 (4.6×150 mm, 5 μm)
Mobile phase: an aqueous solution of ammonium phosphate monohydride (0.05 M) (adjusted to pH 6 with phosphoric acid): acetonitrile=35:65

[4] = Evaluation of hygroscopicity: water content (K.F.) after exposure to humid conditions at 25° C.; type: physicochemical; conditions: for change in water content under humid conditions (in words): relative humidities of 10%, 75% and 90%, up to one week or longer
Method: The sulphonic acid salts of sibutramine, prepared in Examples 1 to 5, and sibutramine hydrochloride monohydrate were exposed to humid conditions (10%, 75% and 90% RH) at 25° C. for a period of three days or one week. Then, the water content (K.F. water %) of the samples was measured.

rat = conditions: oral; cited from earlier work
mouse = conditions: intravenous; cited from earlier work
[5] = 10% relative humidity, 25° C., 1 week
[6] = 10% relative humidity, 25° C., 3 days
[7] = 75% relative humidity, 25° C., 1 week
[8] = 75% relative humidity, 25° C., 3 days
[9] = 90% relative humidity, 25° C., 1 week
[10] = 90% relative humidity, 25° C., 3 days

## CC(C)CC(N(C)C)C1(c2ccc(Cl)cc2)CCC1.CC1(C)C2CCC1(CS(=O)(=O)O)C(=O)C2 (stereo not shown) [Camsylate, sibutramine camsylate]
[1]; DW (distilled water)
  solubility: 23.67 mg/mL
[1]; pH 1.2
  solubility: 16.18 mg/mL
[1]; pH 4.0
  solubility: 16.75 mg/mL
[1]; pH 5.3
  solubility: 7.45 mg/mL
[1]; pH 6.8
  solubility: 29.83 mg/mL
[1]; pH 7.4
  solubility: 13.97 mg/mL
[2]; Initial
  content (HPLC) in light stability test: 1.000
[2]; fluorescence, 25° C., 1 wk
  content (HPLC) in light stability test: 0.999
[2]; fluorescence, 25° C., 2 wks
  content (HPLC) in light stability test: 1.000
[2]; fluorescence, 25° C., 4 wks
  content (HPLC) in light stability test: 0.999
[3]; 60° C., 1 wk
  content (HPLC) upon 60° C. heat treatment: 1.000
[3]; 60° C., 2 wks
  content (HPLC) upon 60° C. heat treatment: 0.999
[3]; 60° C., 4 wks
  content (HPLC) upon 60° C. heat treatment: 0.999
[3]; Initial
  content (HPLC) upon 60° C. heat treatment: 1.000
[4]; [5]
  water content (K.F. water %): 0.08%
[4]; [6]
  water content (K.F. water %): 0.09%
[4]; [7]
  water content (K.F. water %): 0.06%
[4]; [8]
  water content (K.F. water %): 0.06%
[4]; [9]
  water content (K.F. water %): 0.12%
[4]; [10]
  water content (K.F. water %): 0.08%
[4]; Initial
  water content (K.F. water %): 0.09%
[4]
  change in water content under humid conditions (in words): almost no change in water content

## CC(C)CC(N(C)C)C1(c2ccc(Cl)cc2)CCC1 (stereo not shown) [Edisylate, sibutramine edisylate]
[1]; DW (distilled water)
  solubility: 25.98 mg/mL (≈ 92.8 mM)
[1]
  solubility compared to sibutramine hydrochloride monohydrate (in words): slightly low solubility compared to sibutramine hydrochloride monohydrate; also recorded: slightly lower solubility than sibutramine hydrochloride monohydrate
[1]; pH 1.2
  solubility: 10.57 mg/mL (≈ 37.8 mM)
[1]; pH 4.0
  solubility: 9.78 mg/mL (≈ 34.9 mM)
[1]; pH 5.3
  solubility: 5.68 mg/mL (≈ 20.3 mM)
[1]; pH 6.8
  solubility: 19.44 mg/mL (≈ 69.5 mM)
[1]; pH 7.4
  solubility: 8.04 mg/mL (≈ 28.7 mM)
[2]; Initial
  content (HPLC) in light stability test: 1.000
[2]; fluorescence, 25° C., 1 wk
  content (HPLC) in light stability test: 1.000
[2]; fluorescence, 25° C., 2 wks
  content (HPLC) in light stability test: 0.999
[2]; fluorescence, 25° C., 4 wks
  content (HPLC) in light stability test: 1.000
[3]; 60° C., 1 wk
  content (HPLC) upon 60° C. heat treatment: 0.999
[3]; 60° C., 2 wks
  content (HPLC) upon 60° C. heat treatment: 1.000
[3]; 60° C., 4 wks
  content (HPLC) upon 60° C. heat treatment: 0.999
[3]; Initial
  content (HPLC) upon 60° C. heat treatment: 1.000
[4]; [5]
  water content (K.F. water %): 0.05%
[4]; [6]
  water content (K.F. water %): 0.06%
[4]; [7]
  water content (K.F. water %): 0.05%
[4]; [8]
  water content (K.F. water %): 0.04%
[4]; [9]
  water content (K.F. water %): 0.05%
[4]; [10]
  water content (K.F. water %): 0.04%
[4]; Initial
  water content (K.F. water %): 0.05%
[4]
  change in water content under humid conditions (in words): almost no change in water content

## CC(C)CC(N(C)C)C1(c2ccc(Cl)cc2)CCC1 (stereo not shown) [Esylate hemihydrate, sibutramine esylate hemihydrate]
[1]; DW (distilled water), hemihydrate
  solubility: 84.10 mg/mL
[1]; hemihydrate
  solubility compared to sibutramine hydrochloride monohydrate (in words): excellent solubility compared to sibutramine hydrochloride monohydrate
[1]; distilled water and aqueous solutions of pH 1.2, pH 4.0, pH 5.3, pH 6.8 and pH 7.4
  solubility relative to sibutramine hydrochloride: two times-higher than the solubility of sibutramine hydrochloride
[1]; pH 1.2, hemihydrate
  solubility: 70.65 mg/mL
[1]; pH 4.0, hemihydrate
  solubility: 26.42 mg/mL
[1]; pH 5.3, hemihydrate
  solubility: 19.53 mg/mL
[1]; pH 6.8, hemihydrate
  solubility: 69.42 mg/mL
[1]; pH 7.4, hemihydrate
  solubility: 27.61 mg/mL
[2]; fluorescence, 25° C., 1 wk, hemihydrate
  content (HPLC) in light stability test: 0.999
[2]; fluorescence, 25° C., 2 wks, hemihydrate
  content (HPLC) in light stability test: 1.000
[2]; fluorescence, 25° C., 4 wks, hemihydrate
  content (HPLC) in light stability test: 0.999
[3]; 60° C., 1 wk, hemihydrate
  content (HPLC) upon 60° C. heat treatment: 1.000
[3]; 60° C., 2 wks, hemihydrate
  content (HPLC) upon 60° C. heat treatment: 0.999
[3]; 60° C., 4 wks, hemihydrate
  content (HPLC) upon 60° C. heat treatment: 0.999
[4]; 10% relative humidity, 25° C., 1 week, hemihydrate
  water content (K.F. water %): 2.37%
[4]; 10% relative humidity, 25° C., 3 days, hemihydrate
  water content (K.F. water %): 2.35%
[4]; 75% relative humidity, 25° C., 1 week, hemihydrate
  water content (K.F. water %): 2.35%
[4]; 75% relative humidity, 25° C., 3 days, hemihydrate
  water content (K.F. water %): 2.29%
[4]; 90% relative humidity, 25° C., 1 week, hemihydrate
  water content (K.F. water %): 2.40%
[4]; 90% relative humidity, 25° C., 3 days, hemihydrate
  water content (K.F. water %): 2.44%
[4]; Initial, hemihydrate
  water content (K.F. water %): 2.37%
[4]
  change in water content under humid conditions (in words): almost no change in water content

## CC(C)CC(N(C)C)C1(c2ccc(Cl)cc2)CCC1 (stereo not shown) [Tosylate, sibutramine tosylate]
[1]; DW (distilled water)
  solubility: 24.32 mg/mL
[1]
  solubility compared to sibutramine hydrochloride monohydrate (in words): slightly low solubility compared to sibutramine hydrochloride monohydrate; also recorded: slightly lower solubility than sibutramine hydrochloride monohydrate
[1]; pH 1.2
  solubility: 8.36 mg/mL
[1]; pH 4.0
  solubility: 7.56 mg/mL
[1]; pH 5.3
  solubility: 5.53 mg/mL
[1]; pH 6.8
  solubility: 21.92 mg/mL
[1]; pH 7.4
  solubility: 7.69 mg/mL
[2]; Initial
  content (HPLC) in light stability test: 1.000
[2]; fluorescence, 25° C., 1 wk
  content (HPLC) in light stability test: 1.000
[2]; fluorescence, 25° C., 2 wks
  content (HPLC) in light stability test: 0.999
[2]; fluorescence, 25° C., 4 wks
  content (HPLC) in light stability test: 0.999
[3]; 60° C., 1 wk
  content (HPLC) upon 60° C. heat treatment: 0.999
[3]; 60° C., 2 wks
  content (HPLC) upon 60° C. heat treatment: 1.000
[3]; 60° C., 4 wks
  content (HPLC) upon 60° C. heat treatment: 0.999
[3]; Initial
  content (HPLC) upon 60° C. heat treatment: 1.000
[4]; 10% relative humidity, 25° C., 1 week, listed as Tosyalte
  water content (K.F. water %): 0.07%
[4]; 10% relative humidity, 25° C., 3 days, listed as Tosyalte
  water content (K.F. water %): 0.08%
[4]; 75% relative humidity, 25° C., 1 week, listed as Tosyalte
  water content (K.F. water %): 0.08%
[4]; 75% relative humidity, 25° C., 3 days, listed as Tosyalte
  water content (K.F. water %): 0.05%
[4]; 90% relative humidity, 25° C., 1 week, listed as Tosyalte
  water content (K.F. water %): 0.07%
[4]; 90% relative humidity, 25° C., 3 days, listed as Tosyalte
  water content (K.F. water %): 0.05%
[4]; Initial, listed as Tosyalte
  water content (K.F. water %): 0.10%
[4]
  change in water content under humid conditions (in words): almost no change in water content

## O=S(=O)(O)c1ccccc1 [benzenesulfonic acid]
rat
  LD50: 1,157 mg/kg

## O=S(=O)(O)CCS(=O)(=O)O [ethane disulfonic acid]
mouse
  LDL0: 68 mg/kg

## CCS(=O)(=O)O [ethanesulfonic acid]
mouse
  LDL0: 48 mg/kg

## Cc1ccc(S(=O)(=O)O)cc1 [p-toluenesulfonic acid]
rat
  LD50: 2,480 mg/kg
